According to PubChem BioAssay AID2060910 (Molecular Pharmacology Branch, DTP, NCI, 2025):
pIC50: −log10 of the molar value.

System: 242566-281-R-J2-PDC complex spheroid viability
Assay: Anticancer human tumor 242566-281-R-J2-PDC patient-derived pancreatic carcinoma cell line growth inhibition [RAS]
Settings: for pIC50: curve of first compound; for viability, T/C: stronger effect = lower value
Summary of the method: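 Tumour cells grown as complex spheroids with HUVEC endothelial cells and mesenchymal stem cells, treated with RAS pathway inhibitor combinations. Each agent spans half-log steps from near clinical Cmax, or 10 microM where Cmax is unknown.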

[1] = second compound 0.00316 µM, first compound 0.0316 µM
[2] = second compound 0.00316 µM, first compound 0.1 µM
[3] = second compound 0.00316 µM, first compound 0.316 µM
[4] = second compound 0.00316 µM, first compound 1 µM
[5] = second compound 0.00316 µM, first compound 3.16 µM
[6] = second compound 0.00316 µM, first compound 10 µM
[7] = second compound 0.01 µM, first compound 0.0316 µM
[8] = second compound 0.01 µM, first compound 0.1 µM
[9] = second compound 0.01 µM, first compound 0.316 µM
[10] = second compound 0.01 µM, first compound 1 µM
[11] = second compound 0.01 µM, first compound 3.16 µM
[12] = second compound 0.01 µM, first compound 10 µM
[13] = second compound 0.0316 µM, first compound 0.0316 µM
[14] = second compound 0.0316 µM, first compound 0.1 µM
[15] = second compound 0.0316 µM, first compound 0.316 µM
[16] = second compound 0.0316 µM, first compound 1 µM
[17] = second compound 0.0316 µM, first compound 3.16 µM
[18] = second compound 0.0316 µM, first compound 10 µM
[19] = second compound 0.1 µM, first compound 0.0316 µM
[20] = second compound 0.1 µM, first compound 0.1 µM
[21] = second compound 0.1 µM, first compound 0.316 µM
[22] = second compound 0.1 µM, first compound 1 µM
[23] = second compound 0.1 µM, first compound 3.16 µM
[24] = second compound 0.1 µM, first compound 10 µM
[25] = second compound 0.316 µM, first compound 0.0316 µM
[26] = second compound 0.316 µM, first compound 0.1 µM
[27] = second compound 0.316 µM, first compound 0.316 µM
[28] = second compound 0.316 µM, first compound 1 µM
[29] = second compound 0.316 µM, first compound 3.16 µM
[30] = second compound 0.316 µM, first compound 10 µM
[31] = second compound 1 µM, first compound 0.0316 µM
[32] = second compound 1 µM, first compound 0.1 µM
[33] = second compound 1 µM, first compound 0.316 µM
[34] = second compound 1 µM, first compound 1 µM
[35] = second compound 1 µM, first compound 3.16 µM
[36] = second compound 1 µM, first compound 10 µM
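Note: spheroids exposed to compound for 7 days before readout.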
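Throughout, for viability, T/C: 100% = DMSO vehicle control wells.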

`CC(=O)OC12COC1CC(O)C1(C)C(=O)C(O)C3=C(C)C(OC(=O)C(O)C(NC(=O)OC(C)(C)C)c4ccccc4)CC(O)(C(OC(=O)c4ccccc4)C21)C3(C)C` (stereo not drawn) + C=CC(=O)N1CCN(c2nc(OCC3CCCN3C)nc3c(F)c(-c4nc(N)cc(C)c4C(F)(F)F)c(Cl)cc23)C(C)C1 was tested, and the pIC50 (second compound 0.00316 µM) was over 7.50, the pIC50 (second compound 0.01 µM) was 6.63 and the pIC50 (second compound 0.0316 µM) was 6.91. It also gave a pIC50 (second compound 0.1 µM) of under 5.00, a pIC50 (second compound 0.316 µM) of under 5.00 and a pIC50 (second compound 1 µM) of over 7.50. The viability, T/C [1] was 52.6%, the viability, T/C [2] was 53.8% and the viability, T/C [3] was 50.5%. For the same compound, the viability, T/C [4] was 35.5%, the viability, T/C [5] was 54.5% and the viability, T/C [6] was 69.3%. The viability, T/C [7] was 71.5%, the viability, T/C [8] was 53% and the viability, T/C [9] was 42.2%. For the same compound, the viability, T/C [10] was 41.8%, the viability, T/C [11] was 45.2% and the viability, T/C [12] was 66.8%. The viability, T/C [13] was 80.4%, the viability, T/C [14] was 51.9% and the viability, T/C [15] was 39.3%. The viability, T/C [16] was 35.6%, the viability, T/C [17] was 48.5% and the viability, T/C [18] was 66.5%. It also gave a viability, T/C [19] of 61.1%, a viability, T/C [20] of 51.4% and a viability, T/C [21] of 47.6%. For the same compound, the viability, T/C [22] was 37.9%, the viability, T/C [23] was 46.5% and the viability, T/C [24] was 68.2%. It also gave a viability, T/C [25] of 64.9%, a viability, T/C [26] of 52.1% and a viability, T/C [27] of 37%. It also gave a viability, T/C [28] of 49.3%, a viability, T/C [29] of 55.7% and a viability, T/C [30] of 71.4%. The viability, T/C [31] was 52.7%, the viability, T/C [32] was 51.1% and the viability, T/C [33] was 44.8%. It also gave a viability, T/C [34] of 42.8%, a viability, T/C [35] of 50.9% and a viability, T/C [36] of 65.7%.

For `Cc1nc(N2CCC3(CC2)COC(C)C3N)c(CO)nc1Sc1ccnc(N)c1Cl` (stereo not drawn) + C=CC(=O)N1CCN(c2nc(OCC3CCCN3C)nc3c(F)c(-c4nc(N)cc(C)c4C(F)(F)F)c(Cl)cc23)C(C)C1, the pIC50 (second compound 0.00316 µM) was under 5.00, the pIC50 (second compound 0.01 µM) was under 5.00 and the pIC50 (second compound 0.0316 µM) was under 5.00. The pIC50 (second compound 0.1 µM) was under 5.00, the pIC50 (second compound 0.316 µM) was under 5.00 and the pIC50 (second compound 1 µM) was under 5.00. It also gave a viability, T/C [1] of 115%, a viability, T/C [2] of 136% and a viability, T/C [3] of 102%. For the same compound, the viability, T/C [4] was 80.1%, the viability, T/C [5] was 104% and the viability, T/C [6] was 105%. It also gave a viability, T/C [7] of 129%, a viability, T/C [8] of 120% and a viability, T/C [9] of 89.3%. It also gave a viability, T/C [10] of 70.8%, a viability, T/C [11] of 94% and a viability, T/C [12] of 116%. The viability, T/C [13] was 118%, the viability, T/C [14] was 124% and the viability, T/C [15] was 99.1%. The viability, T/C [16] was 77.4%, the viability, T/C [17] was 100% and the viability, T/C [18] was 120%. It also gave a viability, T/C [19] of 157%, a viability, T/C [20] of 119% and a viability, T/C [21] of 89.4%. The viability, T/C [22] was 84.6%, the viability, T/C [23] was 83.1% and the viability, T/C [24] was 113%. For the same compound, the viability, T/C [25] was 132%, the viability, T/C [26] was 151% and the viability, T/C [27] was 96%. It also gave a viability, T/C [28] of 85%, a viability, T/C [29] of 102% and a viability, T/C [30] of 113%. The viability, T/C [31] was 141%, the viability, T/C [32] was 130% and the viability, T/C [33] was 93.2%. The viability, T/C [34] was 85.7%, the viability, T/C [35] was 112% and the viability, T/C [36] was 113%.

With `NC1c2ccccc2OC12CCN(c1cnc3c(N4CCCc5ncccc54)n[nH]c3n1)CC2` (stereo not drawn) + C=CC(=O)N1CCN(c2nc(OCC3CCCN3C)nc3c(F)c(-c4nc(N)cc(C)c4C(F)(F)F)c(Cl)cc23)C(C)C1 the pIC50 (second compound 0.00316 µM) was under 5.00, the pIC50 (second compound 0.01 µM) was under 5.00 and the pIC50 (second compound 0.0316 µM) was under 5.00. For the same compound, the pIC50 (second compound 0.1 µM) was under 5.00, the pIC50 (second compound 0.316 µM) was under 5.00 and the pIC50 (second compound 1 µM) was under 5.00. It also gave a viability, T/C [1] of 104%, a viability, T/C [2] of 128% and a viability, T/C [3] of 83.3%. For the same compound, the viability, T/C [4] was 82.7%, the viability, T/C [5] was 79.5% and the viability, T/C [6] was 61.7%. For the same compound, the viability, T/C [7] was 99%, the viability, T/C [8] was 122% and the viability, T/C [9] was 107%. The viability, T/C [10] was 72.2%, the viability, T/C [11] was 98.7% and the viability, T/C [12] was 62.6%. For the same compound, the viability, T/C [13] was 120%, the viability, T/C [14] was 126% and the viability, T/C [15] was 86.9%. The viability, T/C [16] was 89.3%, the viability, T/C [17] was 77.1% and the viability, T/C [18] was 56.2%. The viability, T/C [19] was 124%, the viability, T/C [20] was 129% and the viability, T/C [21] was 98.8%. For the same compound, the viability, T/C [22] was 67.5%, the viability, T/C [23] was 73.3% and the viability, T/C [24] was 54.7%. The viability, T/C [25] was 124%, the viability, T/C [26] was 138% and the viability, T/C [27] was 87%. The viability, T/C [28] was 84.4%, the viability, T/C [29] was 76.2% and the viability, T/C [30] was 56.8%. The viability, T/C [31] was 122%, the viability, T/C [32] was 119% and the viability, T/C [33] was 76.1%. It also gave a viability, T/C [34] of 87.4%, a viability, T/C [35] of 91% and a viability, T/C [36] of 60.4%.

Work on `Nc1ccn(C2OC(CO)C(O)C2(F)F)c(=O)n1` (stereo not drawn) + C=CC(=O)N1CCN(c2nc(OCC3CCCN3C)nc3c(F)c(-c4nc(N)cc(C)c4C(F)(F)F)c(Cl)cc23)C(C)C1 yielded a pIC50 (second compound 0.00316 µM) of 6.97, a pIC50 (second compound 0.01 µM) of 6.95 and a pIC50 (second compound 0.0316 µM) of 6.99. For the same compound, the pIC50 (second compound 0.1 µM) was 7.01, the pIC50 (second compound 0.316 µM) was 7.24 and the pIC50 (second compound 1 µM) was 7.01. It also gave a viability, T/C (second compound 0.00316 µM, first compound 0.00316 µM) of 101%, a viability, T/C (second compound 0.00316 µM, first compound 0.01 µM) of 118% and a viability, T/C [1] of 92.6%. The viability, T/C [2] was 52.1%, the viability, T/C [3] was 25.9% and the viability, T/C [4] was 18.4%. It also gave a viability, T/C (second compound 0.01 µM, first compound 0.00316 µM) of 123%, a viability, T/C (second compound 0.01 µM, first compound 0.01 µM) of 128% and a viability, T/C [7] of 93.6%. It also gave a viability, T/C [8] of 53.8%, a viability, T/C [9] of 26% and a viability, T/C [10] of 16.2%. For the same compound, the viability, T/C (second compound 0.0316 µM, first compound 0.00316 µM) was 103%, the viability, T/C (second compound 0.0316 µM, first compound 0.01 µM) was 147% and the viability, T/C [13] was 74.3%. It also gave a viability, T/C [14] of 60%, a viability, T/C [15] of 21.6% and a viability, T/C [16] of 15.8%. It also gave a viability, T/C (second compound 0.1 µM, first compound 0.00316 µM) of 134%, a viability, T/C (second compound 0.1 µM, first compound 0.01 µM) of 124% and a viability, T/C [19] of 91.3%. It also gave a viability, T/C [20] of 50.8%, a viability, T/C [21] of 21.5% and a viability, T/C [22] of 19.1%. For the same compound, the viability, T/C (second compound 0.316 µM, first compound 0.00316 µM) was 115%, the viability, T/C (second compound 0.316 µM, first compound 0.01 µM) was 160% and the viability, T/C [25] was 75.5%. It also gave a viability, T/C [26] of 41.9%, a viability, T/C [27] of 20.6% and a viability, T/C [28] of 15.7%. It also gave a viability, T/C (second compound 1 µM, first compound 0.00316 µM) of 115%, a viability, T/C (second compound 1 µM, first compound 0.01 µM) of 102% and a viability, T/C [31] of 83.6%. It also gave a viability, T/C [32] of 50.9%, a viability, T/C [33] of 22% and a viability, T/C [34] of 18.9%.
